Read-outs that look alike come from different tables or passages of the source.
Key:
[1] = biological target: T1, ALK (Homo sapiens, UniProt Q9UM73); test: ALK Kinase Assay (ELISA/TRF, PLC-γ substrate); type: biochemical; conditions: read-out: ALK Potency
T1 construct: host or cells: baculovirus expression system
Procedure, shortened: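 PLC-γ substrate coated at 10 μg/mL in TBS; reaction started with 30 ng/ml ALK, run 15 min at 37° C. Phosphoproduct detected by TRF with Eu-N1-labeled PT66 anti-phosphotyrosine antibody. IC50 from sigmoidal variable-slope fit of percent inhibition versus log concentration.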

[2] = biological target: T2, JAK2 (Homo sapiens, UniProt O60674); test: Recombinant Human JAK2 Kinase Assay (TRF); type: biochemical; conditions: read-out: JAK2 Potency
T2 construct: host or cells: baculovirus expression system
T2 sequence (O60674 whole entry): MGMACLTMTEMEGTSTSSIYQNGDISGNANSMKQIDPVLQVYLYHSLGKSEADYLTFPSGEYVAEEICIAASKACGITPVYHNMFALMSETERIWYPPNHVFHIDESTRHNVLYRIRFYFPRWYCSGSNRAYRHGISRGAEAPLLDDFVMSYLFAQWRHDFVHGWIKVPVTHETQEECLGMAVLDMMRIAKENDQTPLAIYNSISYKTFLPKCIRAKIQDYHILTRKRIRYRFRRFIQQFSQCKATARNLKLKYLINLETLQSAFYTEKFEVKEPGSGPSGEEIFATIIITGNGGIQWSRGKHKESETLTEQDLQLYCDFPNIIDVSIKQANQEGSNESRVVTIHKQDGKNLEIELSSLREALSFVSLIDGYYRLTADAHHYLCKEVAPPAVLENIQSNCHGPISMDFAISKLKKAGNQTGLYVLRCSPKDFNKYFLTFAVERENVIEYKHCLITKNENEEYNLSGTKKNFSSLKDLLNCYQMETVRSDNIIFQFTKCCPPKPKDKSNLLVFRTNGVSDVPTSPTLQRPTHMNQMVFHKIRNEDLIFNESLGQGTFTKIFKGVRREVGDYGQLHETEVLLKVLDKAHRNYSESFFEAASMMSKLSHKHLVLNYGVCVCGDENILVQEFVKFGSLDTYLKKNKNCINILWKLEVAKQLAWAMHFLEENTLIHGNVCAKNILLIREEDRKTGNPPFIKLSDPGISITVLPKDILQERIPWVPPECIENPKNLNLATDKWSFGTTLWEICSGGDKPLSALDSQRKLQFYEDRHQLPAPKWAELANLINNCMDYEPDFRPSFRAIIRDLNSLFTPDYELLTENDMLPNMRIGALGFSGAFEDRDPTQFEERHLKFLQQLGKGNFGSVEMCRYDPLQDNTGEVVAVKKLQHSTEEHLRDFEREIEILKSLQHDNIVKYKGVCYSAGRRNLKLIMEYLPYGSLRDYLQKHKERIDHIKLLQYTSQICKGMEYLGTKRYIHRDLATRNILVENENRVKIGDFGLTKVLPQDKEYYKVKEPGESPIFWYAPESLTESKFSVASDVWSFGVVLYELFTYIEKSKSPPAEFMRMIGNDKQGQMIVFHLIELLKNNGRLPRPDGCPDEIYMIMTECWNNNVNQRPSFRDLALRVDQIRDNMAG
Procedure: Compounds were tested for their ability to inhibit the kinase activity of baculovirus-expressed JAK2 using the TRF detection system. […] The plates were coated first with 100 μL/well of 10 μg/mL Neutravidin (Pierce #31000, Rockford, Ill.) in TBS at 37° C. for 2 hours, followed by 100 μL/well of 1 μg/mL 15-mer peptide substrate (biotinyl-amino-hexanoyl-[…]-amide, Infinity Biotech Research and Resource, Aston, Pa.) at 37° C. for another hour. The JAK2 assay mixture (total volume=100 μL/well) consisting of 20 mM HEPES (pH 7.2), 0.2 μM ATP, 1 mM MnCl2, 0.1% BSA, and test compound (diluted in DMSO; 2.5% DMSO final in assay) was then added to the assay plate. Enzyme (15 ng/ml JAK2) was added and the reaction was allowed to proceed at room temperature for 20 minutes. Detection of the phosphorylated product was performed by adding 100 μL/well of Eu—N1 labeled PY100 antibody (PerkinElmer Life Sciences #AD0041, Boston, Mass.).

[3] = ALK kinase inhibition, 1 μM ATP
[4] = JAK2 kinase inhibition, 0.2 μM ATP

T1 sequence (Q9UM73 19-1620): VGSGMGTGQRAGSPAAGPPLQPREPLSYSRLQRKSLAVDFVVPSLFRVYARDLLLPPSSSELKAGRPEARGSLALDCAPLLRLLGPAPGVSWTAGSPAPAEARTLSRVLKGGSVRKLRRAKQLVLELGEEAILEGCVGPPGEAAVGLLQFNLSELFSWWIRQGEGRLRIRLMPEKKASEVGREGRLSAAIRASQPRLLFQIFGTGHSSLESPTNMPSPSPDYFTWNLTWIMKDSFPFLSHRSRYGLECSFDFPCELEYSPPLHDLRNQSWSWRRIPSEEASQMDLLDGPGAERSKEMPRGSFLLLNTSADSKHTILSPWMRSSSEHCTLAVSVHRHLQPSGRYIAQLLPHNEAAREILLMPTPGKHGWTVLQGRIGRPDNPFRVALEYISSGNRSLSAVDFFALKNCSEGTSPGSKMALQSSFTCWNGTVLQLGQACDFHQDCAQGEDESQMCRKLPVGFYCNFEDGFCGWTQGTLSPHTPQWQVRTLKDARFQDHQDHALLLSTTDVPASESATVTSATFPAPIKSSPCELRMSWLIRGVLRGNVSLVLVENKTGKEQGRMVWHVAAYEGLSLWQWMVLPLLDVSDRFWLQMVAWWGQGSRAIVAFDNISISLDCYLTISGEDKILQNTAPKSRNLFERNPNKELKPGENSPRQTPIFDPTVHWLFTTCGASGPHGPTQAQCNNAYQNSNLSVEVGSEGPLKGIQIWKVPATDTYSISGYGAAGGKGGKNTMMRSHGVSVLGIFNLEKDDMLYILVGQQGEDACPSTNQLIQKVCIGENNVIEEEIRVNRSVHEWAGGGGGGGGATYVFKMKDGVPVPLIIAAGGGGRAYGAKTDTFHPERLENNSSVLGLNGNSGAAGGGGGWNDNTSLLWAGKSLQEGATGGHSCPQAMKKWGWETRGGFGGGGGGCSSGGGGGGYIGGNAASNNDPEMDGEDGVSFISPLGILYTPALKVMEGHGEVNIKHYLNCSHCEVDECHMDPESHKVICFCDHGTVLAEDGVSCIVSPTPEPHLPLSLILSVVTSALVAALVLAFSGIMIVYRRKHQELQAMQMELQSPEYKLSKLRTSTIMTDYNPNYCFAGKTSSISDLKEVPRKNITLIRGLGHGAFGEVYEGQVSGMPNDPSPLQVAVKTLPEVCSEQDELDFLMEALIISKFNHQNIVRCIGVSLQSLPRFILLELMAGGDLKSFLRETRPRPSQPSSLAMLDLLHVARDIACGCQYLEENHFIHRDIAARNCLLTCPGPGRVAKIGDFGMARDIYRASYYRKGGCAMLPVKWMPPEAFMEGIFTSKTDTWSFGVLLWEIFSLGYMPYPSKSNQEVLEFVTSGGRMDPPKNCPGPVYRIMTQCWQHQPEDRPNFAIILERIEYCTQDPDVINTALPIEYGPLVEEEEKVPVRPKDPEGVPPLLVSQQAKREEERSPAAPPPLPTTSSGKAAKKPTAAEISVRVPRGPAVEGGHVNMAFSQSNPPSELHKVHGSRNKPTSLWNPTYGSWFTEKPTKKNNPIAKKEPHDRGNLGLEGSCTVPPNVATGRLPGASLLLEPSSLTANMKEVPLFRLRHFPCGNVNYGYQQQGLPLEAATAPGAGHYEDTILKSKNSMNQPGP

IC50 ([1]; ALK Kinase Inhibition)	IC50 ([2]; JAK2 Kinase Inhibition)	IC50 [1, 3]	IC50 [2, 4]	Structure (SMILES)
100 to 1000 nM	< 100 nM			NC(=O)CN1CCC(c2ccc(Nc3ncc4ccc(-c5ccccc5O)n4n3)cc2)CC1 [Example 1427, 2-(4-{4-[7-(2-Hydroxy-phenyl)-pyrrolo[2,1-f][1,2,4]triazin-2-ylamino]-phenyl}-piperidin-1-yl)-acetamide]
		100 to 1000 nM	< 100 nM	CS(=O)(=O)c1cccc(-c2ccc3cnc(Nc4ccc(C5CCNCC5O)cc4)nn23)c1 (stereo not drawn) [Example 1018, 4-{4-[7-(3-methanesulfonyl-phenyl)-pyrrolo[2,1-f][1,2,4]triazin-2-ylamino]-phenyl}-piperidine-3-ol]
< 100 nM	100 to 1000 nM			COc1cc(N2CCC(C)(N3CCOCC3)CC2)ccc1Nc1ncc2ccc(-c3ccccc3N(C)S(C)(=O)=O)n2n1 [Example 1468, N-(2-{2-[2-Methoxy-4-(4-methyl-4-morpholin-4-yl-piperidin-1-yl)-phenylamino]-pyrrolo[2,1-f][1,2,4]triazin-7-yl}-phenyl)-N-methyl-methanesulfonamide]
100 to 1000 nM	< 100 nM			CC(=O)N1CCOc2ccc(Nc3ncc4ccc(-c5ccccc5N(C)S(C)(=O)=O)n4n3)cc21 [Example 1374, N-{2-[2-(4-Acetyl-3,4-dihydro-2H-1,4-benzoxazin-6-ylamino)-pyrrolo[2,1-f][1,2,4]triazin-7-yl]-phenyl}-N-methyl-methanesulfonamide]
		< 100 nM	100 to 1000 nM	COc1cc2c(cc1Nc1ncc3ccc(-c4cccc(S(=O)(=O)NC5CC5)c4)n3n1)CCN(C[C@@H](C)O)CC2 [Example 523, N-Cyclopropyl-3-{2-[3-((R)-2-hydroxy-propyl)-8-methoxy-2,3,4,5-tetrahydro-1H-benzo[d]azepin-7-ylamino]-pyrrolo[2,1-f][1,2,4]triazin-7-yl}benzenesulfonamide]
		< 100 nM	< 100 nM	N#CCOc1ccccc1-c1ccc2cnc(Nc3ccc(N4CCOCC4)cc3)nn12 [Example 1144, {2-[2-(4-Morpholin-4-yl-phenylamino)-pyrrolo[2,1-f][1,2,4]triazin-7-yl]-phenoxy}-acetonitrile]
1000 to 10000 nM	< 100 nM			CC(C)(C)NS(=O)(=O)c1cccc(-c2ccc3cnc(Nc4ccc(Cl)cc4)nn23)c1 [Example 1400, N-tert-Butyl-3-[2-(4-chloro-phenylamino)-pyrrolo[2,1-f][1,2,4]triazin-7-yl]-benzenesulfonamide]
		100 to 1000 nM	< 100 nM	COc1ccccc1-c1ccc2cnc(Nc3ccc(C4CN(CC(N)=O)C4)cc3)nn12 [Example 583, 2-(3-{4-[7-(2-Methoxy-phenyl)-pyrrolo[2,1-f][1,2,4]triazin-2-ylamino]-phenyl}-azetidin-1-yl)-acetamide]
		< 100 nM	100 to 1000 nM	CNC(=O)CN1CCC(c2ccc(Nc3ncc4ccc(-c5ccccc5OC)n4n3)c(OC)c2)CC1 [Example 867, 2-(4-{3-Methoxy-4-[7-(2-methoxy-phenyl)-pyrrolo[2,1-f][1,2,4]triazin-2-ylamino]-phenyl}-piperidin-1-yl)-N-methyl-acetamide]
< 100 nM	< 100 nM			OCCN1CCN(c2cccc(Nc3ncc4ccc(-c5cccc(Cl)c5)n4n3)c2)CC1 [Example 179, 2-(4-{3-[7-(3-Chloro-phenyl)-pyrrolo[2,1-f][1,2,4]triazin-2-ylamino]-phenyl}-piperazin-1-yl)-ethanol]
		< 100 nM	< 100 nM	COc1cc(C2CCCN(CC(N)=O)C2)ccc1Nc1ncc2ccc(-c3ccccc3OC)n2n1 (racemic) [Example 860, (±)-2-(3-{3-Methoxy-4-[7-(2-methoxy-phenyl)-pyrrolo[2,1-f][1,2,4]triazin-2-ylamino]-phenyl}-piperidin-1-yl)-acetamide]
1000 to 10000 nM	1000 to 10000 nM			CN(C)Cc1ccc(-c2ccc3cnc(Nc4ccc(C5CCN(CC(N)=O)CC5)cc4)nn23)cc1 [Example 1433, 2-(4-{4-[7-(4-Dimethylaminomethyl-phenyl)-pyrrolo[2,1-f][1,2,4]triazin-2-ylamino]-phenyl}-piperidin-1-yl)-acetamide]
		< 100 nM	< 100 nM	COc1cc(N2CCC(N3CCN(C)CC3)CC2)ccc1Nc1ncc2ccc(-c3cccc(S(=O)(=O)NC(C)(C)C)c3)n2n1 [Example 534, N-tert-Butyl-3-(2-{2-methoxy-4-[4-(4-methyl-piperazin-1-yl)-piperidin-1-yl]-phenylamino}-pyrrolo[2,1-f][1,2,4]triazin-7-yl)-benzene sulfonamide]
		100 to 1000 nM	< 100 nM	COc1ccccc1-c1ccc2cnc(Nc3ccc(C4CCN(C(=O)OC(C)(C)C)C4)cc3)nn12 (stereo not drawn) [Example 1008, 3-{4-[7-(2-Methoxy-phenyl)-pyrrolo[2,1-f][1,2,4]triazin-2-ylamino]-phenyl}-pyrrolidine-1-carboxylic acid tert-butyl ester]
		< 100 nM	100 to 1000 nM	COc1cc(C2CCN(C(=O)C3CCN3)CC2)ccc1Nc1ncc2ccc(-c3ccccc3OC)n2n1 (racemic) [Example 862, (±)-Azetidin-2-yl-(4-{3-methoxy-4-[7-(2-methoxy-phenyl)-pyrrolo[2,1-f][1,2,4]triazin-2-ylamino]-phenyl}-piperidin-1-yl)-methanone]
		1000 to 10000 nM	< 100 nM	CC(=O)Nc1cccc(Nc2ncc3ccc(-c4ccc[nH]4)n3n2)c1 [Example 1292, N-{3-[7-(1H-Pyrrol-2-yl)-pyrrolo[2,1-f][1,2,4]triazin-2-ylamino]-phenyl}-acetamide]
		> 10000 nM	> 10000 nM	CCN1CCN(C(=O)c2ccc(Nc3ncc4c(-c5ccc(F)cc5)ccn4n3)cc2)CC1 [Example 727, (4-Ethyl-piperazin-1-yl)-{4-[5-(4-fluoro-phenyl)-pyrrolo[2,1-f][1,2,4]triazin-2-ylamino]-phenyl}-methanone]
		1000 to 10000 nM	< 100 nM	Cn1ncc2ccc(Nc3ncc4ccc(-c5cccc(S(=O)(=O)NC(C)(C)C)c5)n4n3)cc21 [Example 1317, N-tert-Butyl-3-[2-(1-methyl-1H-indazol-6-ylamino)-pyrrolo[2,1-f][1,2,4]triazin-7-yl]-benzenesulfonamide]
		> 10000 nM	> 10000 nM	COc1cc(C2CCN(C(=O)OC(C)(C)C)CC2)ccc1Nc1ncc2ccc(-c3ccccc3OC)n2n1 [Example 817, 4-{3-Methoxy-4-[7-(2-methoxy-phenyl)-pyrrolo[2,1-f][1,2,4]triazin-2-ylamino]-phenyl}-piperidine-1-carboxylic acid tert-butyl ester]
		1000 to 10000 nM	< 100 nM	Cc1ccncc1-c1ccc2cnc(Nc3ccc(N4CCOCC4)cc3)nn12 [Example 1038, [7-(4-Methyl-pyridin-3-yl)-pyrrolo[2,1-f][1,2,4]triazin-2-yl]-(4-morpholin-4-yl-phenyl)-amine]
		100 to 1000 nM	< 100 nM	CN1CCN(c2ccc(Nc3ncc4ccc(-c5ccc(CN6CCS(=O)(=O)CC6)nc5)n4n3)cc2)CC1 [Example 1056, {7-[6-(1,1-Dioxo-1$1(6)-thiomorpholin-4-ylmethyl)-pyridin-3-yl]-pyrrolo[2,1-f][1,2,4]triazin-2-yl}-[4-(4-methyl-piperazin-1-yl)-phenyl]-amine]
		< 100 nM	< 100 nM	COc1ccccc1-c1ccc2cnc(Nc3ccc4c(c3)CS(=O)(=O)C4)nn12 [Example 659, (2,2-Dioxo-2,3-dihydro-1H-2$1(6)-benzo[c]thiophen-5-yl)-[7-(2-methoxy-phenyl)-pyrrolo[2,1-f][1,2,4]triazin-2-yl]-amine]
1000 to 10000 nM	< 100 nM			COc1ccc(-c2ccc3cnc(Nc4ccc(F)c(N5CCOCC5)c4)nn23)cn1 [Example 392, (4-Fluoro-3-morpholin-4-yl-phenyl)-[7-(6-methoxy-pyridin-3-yl)-pyrrolo[2,1-f][1,2,4]triazin-2-yl]-amine]
		100 to 1000 nM	> 10000 nM	COc1c(Nc2ncc3ccc(-c4ccccc4N(C)S(C)(=O)=O)n3n2)cccc1C(=O)N1CCN(CCO)CC1 [Example 1232, N-[2-(2-{3-[4-(2-Hydroxy-ethyl)-piperazine-1-carbonyl]-2-methoxy-phenylamino}-pyrrolo[2,1-f][1,2,4]triazin-7-yl)-phenyl]-N-methyl-methanesulfonamide]
1000 to 10000 nM	< 100 nM			COc1ccc(Cl)cc1-c1ccc2cnc(Nc3cccc(C(N)=O)c3)nn12 [Example 166, 3-[7-(5-Chloro-2-methoxy-phenyl)-pyrrolo[2,1-f][1,2,4]triazin-2-ylamino]-benzamide]
		1000 to 10000 nM	< 100 nM	CC(C)(C)NS(=O)(=O)c1cccc(-c2ccc3cnc(Nc4ccc5nc(C(C)(C)C)[nH]c5c4)nn23)c1 [Example 1330, N-tert-Butyl-3-[2-(2-tert-butyl-3H-benzimidazol-5-ylamino)-pyrrolo[2,1-f][1,2,4]triazin-7-yl]-benzenesulfonamide]
		100 to 1000 nM	< 100 nM	CN(c1ccccc1-c1ccc2cnc(Nc3ccc4nc(CO)[nH]c4c3)nn12)S(C)(=O)=O [Example 1071, N-{2-[2-(2-Hydroxymethyl-3H-benzoimidazol-5-ylamino)-pyrrolo[2,1-f][1,2,4]triazin-7-yl]-phenyl}-N-methyl-methanesulfonamide]
